The results in this text go back to article PMC9098178, “SAR of Novel 3-Arylisoquinolinones: meta-Substitution on the Aryl Ring Dramatically Enhances Antiproliferative Activity through Binding to Microtubules” (Journal of Medicinal Chemistry, 2022).

One data set concerns HUVECs. Briefly: SRB assay of endothelial cell proliferation. In kind it is cell-based. Particulars: 24 h, up to 10 μM. On the procedure:
Compound 4 was further elucidated whether it blocked the formation of capillary-like tubes and disrupted the already existing tubes of HUVECs as a result of inducing endothelial cell death. Accordingly, the growth of HUVECs treated with 4 was investigated using the SRB assay. HUVECs were plated on 96-well plates without prior coating with Matrigel and then exposed to different concentrations of 4 for 24 h.
All cell lines used in the study were human-derived and purchased from ATCC (Manassas, USA). Breast adenocarcinoma MCF-7 and MDA-MB-231 cell lines were cultured in DMEM. Hepatocellular carcinoma HepG2 and SNU423 cell lines were grown in MEME combined with 1% (v/v) nonessential amino acids and RPMI supplemented with 2 mM glutamine, respectively. Lung adenocarcinoma A549 and colorectal carcinoma HCT116 cells were grown in RPMI (+2 mM glutamine). […]
Screening of the antiproliferative activity of 3-arylisoquinolinones was performed using the SRB assay as previously described.[56] […] Finally, the cellular protein-bound SRB was thoroughly dissolved in 10 mM Tris base, and the OD values were read at 510 nm using a plate reader (μQuant Microplate Spectrophotometer, Biotek, U.K.) coupled with Gen5 software (BioTek, U.K.). […] Cell growth was calculated using the following formula: cell growth (%) = (ODtest/ODcontrol) × 100.
Background: Sulforhodamine B stains cellular protein and so reports cell mass.

A further data set concerns HepG2. Briefly: SRB antiproliferative assay, HepG2. Format: cell-based, human. The conditions noted are these: Homo sapiens, HepG2, 96 h treatment, mean ± SEM, read-out: IC50 HepG2. The method, then:
In light of this substantial change in activity between the meta and para compounds, a more comprehensive analysis of the antiproliferative activity was performed for the meta-/para-3-arylisoquinolinone pairs 2 and 3, 4, and 5, as well as 6. A panel of breast (MDA-MB-231), liver (HepG2, SNU423), lung (A549), and colon (HCT116) cancer cell lines were treated with the five 3-arylisoquinolinone analogs for 96 h followed by the SRB assay. The dose–response curves (including those for MCF-7) are presented in Figure S22, and their relevant IC50 values are listed in Table 1. […] The differential activity between meta- and para-3-arylisoquinolinones was reproduced in the National Cancer Institute (NCI) one-dose screen using a panel of 59 cancer cell lines (Figure S23).
(§1) All cell lines used in the study were human-derived and purchased from ATCC (Manassas, USA). Breast adenocarcinoma MCF-7 and MDA-MB-231 cell lines were cultured in DMEM. Hepatocellular carcinoma HepG2 and SNU423 cell lines were grown in MEME combined with 1% (v/v) nonessential amino acids and RPMI supplemented with 2 mM glutamine, respectively. Lung adenocarcinoma A549 and colorectal carcinoma HCT116 cells were grown in RPMI (+2 mM glutamine). All previous media were further supplemented with 10% heat-inactivated fetal bovine serum. The immortalized, normal liver THLE-3 cells were grown in BEGM (Lonza, Cat# CC-3170) onto precoated vessels according to ATCC’s instructions. Human umbilical vein endothelial cells (HUVECs) were cultured in EGM-2 (Lonza, Cat# CC-3162). All of the cells were maintained at 37 °C and 5% CO2 in a humidified incubator.
(§2) Screening of the antiproliferative activity of 3-arylisoquinolinones was performed using the SRB assay as previously described.[56] Exponentially growing HepG2, SNU423, MDA-MB-231, MCF-7, A549, HCT116, THLE-3, and HUVECs were seeded in 96-well plates at densities of 3000, 2000, 1500, 2500, 1000, 1000, 4000, and 4000 cells/well, respectively. These densities were experimentally selected so that the DMSO-treated cells (control) were approximately 80–90% confluent at the assay’s endpoint, and their optical density (OD) values fell within the assay’s linear range. After overnight incubation, the cells were treated with a range of concentrations of the respective compounds for 96 h, 24 h followed by 72 h compound-free incubation or 24 h (for HUVECs only). After treatment, cell monolayers were fixed with 10% (w/v) trichloroacetic acid for 1 h at 4 °C, washed, and dried. Then, the cells were exposed to 0.4% (w/v) SRB dye (prepared in 1% (v/v) acetic acid; Botium, Cat# 80100) for 15 min followed by several 1% acetic acid washing and then drying. Finally, the cellular protein-bound SRB was thoroughly dissolved in 10 mM Tris base, and the OD values were read at 510 nm using a plate reader (μQuant Microplate Spectrophotometer, Biotek, U.K.) coupled with Gen5 software (BioTek, U.K.). Compound-induced changes in cell growth were inferred from changes in OD values. Cell growth was calculated using the following formula: cell growth (%) = (ODtest/ODcontrol) × 100.

Another data set has as its system MCF-7. Briefly: SRB antiproliferative assay, MCF-7. The conditions noted are these: Homo sapiens, MCF7, 96 h treatment, mean ± SEM, read-out: IC50 MCF-7 (prescreen). Format: cell-based, human. On the procedure:
Initially, the human breast cancer cell line MCF-7 was used in a prescreen analysis of the anticancer activity of 3-arylisoquinolinones. The cells were treated with serial concentrations of compounds 2–8 for 96 h prior to the assessment of proliferation using the sulforhodamine B (SRB) assay. For each compound, the concentration required to inhibit cell growth by 50% compared to that of the untreated control cells (IC50) was determined (Table 1).
as §1, §2

As for `O=c1[nH]c(-c2cccc(F)c2)cc2cc(F)ccc12` [compound 4, 6-Fluoro-3-(3-fluorophenyl)isoquinolin-1(2H)-one], the “effect on proliferation of HUVECs” value with HUVECs is given as “not able to significantly diminish the proliferation of HUVECs”.

As a reminder, the IC50 is the concentration needed to halve the response being measured. Regarding `O=c1[nH]c(-c2ccc(F)cc2)cc2cc(F)ccc12` [compound 5, 6-Fluoro-3-(4-fluorophenyl)isoquinolin-1(2H)-one], the IC50 in the data set on HepG2 and in the data set on MCF-7 was > 50 µM in each case.
